Results published in patent US11618747B2, “LXR modulators with bicyclic core moiety” (OrsoBio, Inc., priority 2018, dated 2023).

Assays:
[1] = molecular target: T1, LXRβ ligand-binding domain (Homo sapiens, UniProt P55055, DUP175-175); experiment: TR-FRETβ activity assay (NCoA3 coactivator peptide recruitment); format: biochemical; details: TR-FRET, 1 μM 24(S)-25-epoxycholesterol prestimulation; read-out: FRETβ (EC50 range)
T1 construct: amino acids 156-461; NP009052; made in house; host or cells: E. coli
T1 sequence (P55055 with tags, fused parts or gaps DUP175-175 limits assumed): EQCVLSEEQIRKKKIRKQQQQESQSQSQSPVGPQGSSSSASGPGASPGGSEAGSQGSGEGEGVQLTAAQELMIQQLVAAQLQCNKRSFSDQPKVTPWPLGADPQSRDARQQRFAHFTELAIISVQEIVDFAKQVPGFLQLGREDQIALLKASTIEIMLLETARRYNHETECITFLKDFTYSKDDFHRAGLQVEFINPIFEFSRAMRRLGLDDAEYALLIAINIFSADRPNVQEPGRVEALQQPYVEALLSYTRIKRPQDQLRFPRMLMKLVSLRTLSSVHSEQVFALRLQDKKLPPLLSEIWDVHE
How it was run: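 GST-tagged human LXRβ LBD (aa 156-461, E. coli) at 76 nM with 400 nM biotinylated NCoA3 peptide in Tris/HCl pH 6.8, 240 mM KCl, BSA, 0.002% Triton-X-100, plus 1 μM 24(S)-25-epoxycholesterol as prestimulating agonist. Compounds at 50 μM down to 0.002 μM, 1 h at 4 °C. Coactivator recruitment by TR-FRET (Tb cryptate/XL665, 615/665 nm), triplicates.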

[2] = molecular target: T2, ligand-binding domain (LBD) of LXRβ (Homo sapiens, UniProt P55055, DUP175-175); experiment: LXR Gal4 reporter transient transfection assay (LBD-M2H Gal4β); format: cell-based; details: HEK293 cells, LXRβ LBD; read-out: LBD-M2H Gal4β (EC50 range)
T2 construct: LXRβ (amino acids 156-461); expressed in transfected cells; host or cells: HEK293
T2 sequence (P55055 with tags, fused parts or gaps DUP175-175 limits assumed): T1 sequence (P55055 with tags, fused parts or gaps DUP175-175 limits assumed)
Experimental: The tested compounds were usually dissolved, tested and stored as 20 mM stock solutions in DMSO. Since sulfonyl acetic acid derivatives tend to decarboxylate under these conditions, these stock solutions were prepared, tested and stored as 20 mM DMSO stock solutions containing 100 mM trifluoroacetic Acid (5 equivalents). Sulfonyl acetic acid derivatives are shelf stable as solid at rt for long time as reported by Griesbrecht et al. (Synlett 2010:374) or Faucher et al. (J. Med. Chem. 2004; 47:18).
LXR Gal4 Reporter Transient Transfection Assays
LXRα and LXRβ activity status was determined via detection of interaction with coactivator and corepressor proteins in mammalian two-hybrid experiments (M2H). For this, via transient transfection the full length (FL) proteins of LXRα (amino acids 1-447; NP005684; SEQ ID NO:1) or LXRβ-(amino acids 1-461; NP009052; SEQ ID NO:2) or the ligand-binding domains (LBD) of LXRα (amino acids 155-447 SEQ ID NO:3) or LXRβ (amino acids 156-461; SEQ ID NO:4) were expressed from pCMV-AD (Stratagene) as fusions to the transcriptional activation domain of NFkB. As cofactors, domains of either the steroid receptor coactivator 1 (SRC1; amino acids 552-887; SEQ ID NO:5) or of the corepressor NCoR (amino acids 1906-2312; NP006302; SEQ ID NO:6) were expressed as fusions to the DNA binding domain of the yeast transcription factor GAL4 (from pCMV-BD; Stratagene). Interaction was monitored via activation of a coexpressed Firefly Luciferase Reporter gene under control of a promoter containing repetitive GAL4 response elements (vector pFRLuc; Stratagene). Transfection efficiency was controlled via cotransfection of constitutively active pRL-CMV Renila reniformis luciferase reporter (Promega). HEK293 cells were grown in minimum essential medium (MEM) with 2 mM L-glutamine and Earle's balanced salt solution supplemented with 8.3% fetal bovine serum, 0.1 mM non-essential amino acids, 1 mM sodium pyruvate, at 37° C. in 5% CO2. 3.5×10^4 cells/well were plated in 96-well cell culture plates in growth medium supplemented with 8.3% fetal bovine serum for 16-20 h to ˜90% confluency. For transfection, medium was taken off and LXR and cofactor expressing plasmids as well as the reporter plasmids are added in 30 μL OPTIMEM/well including polyethylene-imine (PEI) as vehicle. Typical amounts of plasmids transfected/well: pCMV-AD-LXR (5 ng), pCMV-BD-cofactor (5 ng), pFR-Luc (100 ng), pRL-CMV (0.5 ng). Compound stocks were prepared in DMSO, prediluted in MEM to a total volume of 120 μL, and added 4 h after addition of the transfection mixture (final vehicle concentration not exceeding 0.2%). Cells were incubated for additional 16 h, lysed for 10 min in 1× Passive Lysis Buffer (Promega) and Firefly and Renilla luciferase activities were measured sequentially in the same cell extract using buffers containing D-luciferine and coelenterazine, respectively. Measurements of luminescence were done in a BMG-luminometer.

full length (FL) LXRβ = molecular target: T3, full length (FL) LXRβ (Homo sapiens, UniProt P55055, DUP175-175); experiment: LXR Gal4 reporter transient transfection assay (FL-M2H Gal4β); format: cell-based; details: HEK293 cells, full length LXRβ; read-out: FL-M2H Gal4β (EC50 range)
T3 construct: the full length (FL) proteins of LXRα (amino acids 1-447); NP005684; NP009052; expressed in transfected cells; host or cells: HEK293
T3 sequence (P55055 with tags, fused parts or gaps DUP175-175): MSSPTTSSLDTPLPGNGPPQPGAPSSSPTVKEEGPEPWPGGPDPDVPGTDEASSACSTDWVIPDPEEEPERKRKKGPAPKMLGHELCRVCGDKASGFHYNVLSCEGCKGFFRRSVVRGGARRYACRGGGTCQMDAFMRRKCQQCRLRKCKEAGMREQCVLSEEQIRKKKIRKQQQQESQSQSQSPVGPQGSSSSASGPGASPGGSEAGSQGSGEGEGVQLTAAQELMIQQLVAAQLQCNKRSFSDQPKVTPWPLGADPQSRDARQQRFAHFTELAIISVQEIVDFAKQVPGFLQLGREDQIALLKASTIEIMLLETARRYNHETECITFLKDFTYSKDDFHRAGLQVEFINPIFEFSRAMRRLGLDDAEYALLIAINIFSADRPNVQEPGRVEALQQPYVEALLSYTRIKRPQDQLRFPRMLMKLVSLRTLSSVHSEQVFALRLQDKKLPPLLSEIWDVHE
How it was run: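 HEK293 cells were transiently co-transfected with NFkB activation-domain fusions of LXR (full length or LBD) and GAL4 DNA-binding-domain fusions of SRC1 (aa 552-887) or NCoR (aa 1906-2312), plus a GAL4-response-element Firefly luciferase reporter and a Renilla control. Compounds were added 4 h post-transfection, cells incubated 16 h, then dual luciferase read.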

[3] = Short term HFD mouse model: plasma and liver exposure; format: in vivo, mice (C57BL/6J); details: HFD mice, three oral doses of 10 mg/kg, 4 h after last dose
Experimental: Short Term HFD Mouse Model:
The in vivo transcriptional regulation of several LXR target genes by LXR modulators was assessed in mice.
For this, C57BL/6J were purchased from Elevage Janvier (Rennes, France) at the age of 8 weeks. After an acclimation period of two weeks, animals were preferred on a high fat diet (HFD) (Ssniff Spezialdiäten GmbH, Germany, Surwit EF D12330 mod, Cat. No. E15771-34), with 60 kcal % from fat plus 1% (w/w) extra cholesterol (Sigma-Aldrich, St. Louis, Mo.) for 5 days. Animals were maintained on this diet during treatment with LXR modulators. The test compounds were formulated in 0.5% hydroxypropylmethylcellulose (HPMC) and administered in three doses (from 1.5 to 20 mg/kg each) by oral gavage according to the following schedule: on day one, animals received treatment in the morning and the evening (ca. 17:00), on day two animals received the final treatment in the morning after a 4 h fast and were sacrificed 4 h thereafter. Animal work was conducted according to the national guidelines for animal care in Germany.
Upon termination, liver was collected, dipped in ice cold PBS for 30 seconds and cut into appropriate pieces. Pieces were snap frozen in liquid nitrogen and stored at −80° C. For the clinical chemistry analysis from plasma, alanine aminotransferase (ALT, IU/mL), cholesterol (CHOL, mg/dL) and triglycerides (TG, mg/dL) were determined using a fully-automated bench top analyzer (Respons®910, DiaSys Greiner GmbH, Flacht, Germany) with system kits provided by the manufacturer.

Compound | EC50 [1] [µM] | EC50 [2] [µM] | EC50 (full length (FL) LXRβ) [µM] | liver exposure 4 h [3] | liver/plasma ratio 4 h [3] | plasma exposure 4 h [3]
Cc1ccc(S(=O)(=O)n2c(-c3cccc(C4CC4C(=O)O)c3)c(-c3ccsc3C#N)c3ccccc32)cc1 (racemic) [Example 30, rac-(1R,2R)-2-(3-(3-(2-Cyanothiophen-3-yl)-1-tosyl-1H-indol-2-yl)phenyl)cyclopropane-1-carboxylic Acid] | 0.1 to 1 | < 0.1 | – | – | – | –
Cc1cccc(S(=O)(=O)n2c(-c3cccc(N4CC(C(=O)O)C4)c3)c(-c3ccsc3C#N)c3cc(F)ccc32)c1 [3/8] | 1 to 10 | < 0.1 | – | – | – | –
N#Cc1cccc(C#N)c1-c1c(-c2cccc([C@H]3CC[C@H](C(=O)O)CC3)c2)n(S(=O)(=O)c2ccc(C(F)F)cc2)c2ccc(F)cc12 [11/62] | 0.1 to 1 | – | < 0.1 | C (1 μM to ≤10 μM) | B (5 to ≤30) | C (C: 100 nM to <300 nM)
COc1ccc(S(=O)(=O)n2c(-c3ccc(CCC(=O)O)cc3)c(-c3ccsc3C#N)c3ccccc32)cc1 [15/6] | 1 to 10 | 0.1 to 1 | – | – | – | –
COc1ccc(S(=O)(=O)n2c(-c3cccs3)c(-c3ccsc3C#N)c3ccccc32)cc1 [20/14] | 0.1 to 1 | < 0.1 | – | – | – | –
COC(=O)CCc1ccc(S(=O)(=O)n2c(-c3cccs3)c(-c3ccsc3C#N)c3ccccc32)cc1 [20/15] | 0.1 to 1 | 0.1 to 1 | – | – | – | –
COc1ccc(S(=O)(=O)n2c(-c3ccccc3)c(-c3cc4ccccc4nc3C#N)c3ccccc32)cc1 [20/17] | – | 0.1 to 1 | – | – | – | –
N#Cc1sccc1-c1c(-c2cccs2)n(S(=O)(=O)c2ccc(CCC(=O)O)cc2)c2ccccc12 [23/1] | 1 to 10 | < 0.1 | – | – | – | –
CS(=O)(=O)NC(=O)c1ccc(-c2cccc(-c3c(-c4c(C#N)cccc4C#N)c4cc(F)ccc4n3S(=O)(=O)c3ccc(C(F)F)cc3)c2)c(Cl)c1 [32/5] | < 0.1 | – | < 0.1 | B (300 nM to ≤1 μM) | B (5 to ≤30) | D (D: <100 nM)
N#Cc1sccc1-c1c(-c2cccs2)n(S(=O)(=O)c2ccc(Cl)cc2)c2ccc(O)cc12 [Example 13, 3-(1-((4-Chlorophenyl)sulfonyl)-5-hydroxy-2-(thiophen-2-yl)-1t-indol-3-yl)thiophene-2-carbonitrile] | 0.1 to 1 | < 0.1 | – | – | – | –
N#Cc1sccc1-c1c(-c2cccs2)n(S(=O)(=O)c2ccc(Cl)cc2)c2ccc(OCC(=O)O)cc12 [Example 15, 2-((1-((4-Chlorophenyl)sulfonyl)-3-(2-cyanothiophen-3-yl)-2-(thiophen-2-yl)-1H-indol-5-yl)oxy)acetic Acid] | > 10 | > 10 | – | – | – | –
N#Cc1sccc1-c1c(-c2cccs2)n(S(=O)(=O)c2ccc(Cl)cc2)c2cc(CCC(=O)O)c(O)cc12 [Example 17, 3-(1-((4-Chlorophenyl)sulfonyl)-3-(2-cyanothiophen-3-yl)-5-hydroxy-2-(thiophen-2-yl)-1H-indol-6-yl)propanoic Acid] | > 10 | 1 to 10 | – | – | – | –
O=S(=O)(c1ccc(Cl)cc1)n1c(-c2cccs2)c(-c2ccsc2Cl)c2ccccc21 [Example 20, 1-((4-Chlorophenyl)sulfonyl)-3-(2-chlorothiophen-3-yl)-2-(thiophen-2-yl)-1H-indole] | 0.1 to 1 | < 0.1 | – | – | – | –
O=C(O)c1sccc1-c1c(-c2cccs2)n(S(=O)(=O)c2ccc(Cl)cc2)c2ccccc12 [Example 21, 3-(1-((4-Chlorophenyl)sulfonyl)-2-(thiophen-2-yl)-1H-indol-3-yl)thiophene-2-carboxylic Acid] | > 10 | 1 to 10 | – | – | – | –
N#Cc1sccc1-c1c(-c2cccs2)n(S(=O)(=O)c2ccc(Cl)cc2)c2ccc(C(=O)O)cc12 [Example 23, 1-((4-Chlorophenyl)sulfonyl)-3-(2-cyanothiophen-3-yl)-2-(thiophen-2-yl)-1H-indole-5-carboxylic Acid] | > 10 | 0.1 to 1 | – | – | – | –
N#Cc1sccc1-c1c(-c2cncs2)n(S(=O)(=O)c2ccc(Cl)cc2)c2ccccc12 [Example 25] | 1 to 10 | < 0.1 | – | – | – | –
N#Cc1sccc1-c1c(-c2ccccc2)n(S(=O)(=O)c2ccc(OCC(=O)O)cc2)c2ccccc12 [Example 27, 2-(4-((3-(2-Cyanothiophen-3-yl)-2-phenyl-1-H-indol-1-yl)sulfonyl)phenoxy)acetic Acid] | 1 to 10 | 0.1 to 1 | – | – | – | –
COc1ccc(S(=O)(=O)n2c(-c3ccc(CCC(N)=O)cc3)c(-c3ccsc3C#N)c3ccccc32)cc1 [Example 28, 3-(4-(3-(2-Cyanothiophen-3-yl)-1-((4-methoxyphenyl)sulfonyl)-1H-indol-2-yl)phenyl)propan-amide] | 1 to 10 | 0.1 to 1 | – | – | – | –
